Literature values as cited in patent US9677978B2, “Fixative solution, for fixation and preservation of biological samples” (priority 2011, dated 2017).

Settings: in 20 months; commercial biocide solutions stabilized by antioxidants

N#CC(Br)(Br)C(N)=O [DBPNA, 2,2-Dibromo-3-nitrilopropionamide]
degradation of DBPNA: < 10%
